According to patent publication US20220273659A1, “HETEROCYCLIC COMPOUNDS AS KINASE INHIBITORS” (NUVATION BIO INC., priority 2019, published 2022):
pIC50: −log10 of the molar value.

What was measured:
PI3Kδ kinase = molecular target: T1, PI3Kδ kinase (Homo sapiens, UniProt O00329); assay: PI3Kδ kinase assay (ADP-Glo, Reaction Biology); assay type: biochemical
T1 construct: purchased Reaction Biology Corporation (assay service)
Description: IC50 values of compounds against the PI3Kδ kinase were determined by an assay performed by Reaction Biology Corporation (Malvern, Pa.). Briefly, this assay was conducted in buffer (Tris-HCl 40 mM (pH7.5), Orthovanadate 3 mM, MgCl2 20 mM, DTT 2 mM, CHAPS 0.05%, DMSO 1%). PI3Kδ kinase was added to the reaction solution and mixed gently. The test compounds in 100% DMSO (at specific solutions) were mixed with the kinase reaction mixture to achieve the final compounds at pre-defined concentrations (e.g., range −0.5 nM to 100 μM) by Acoustic technology (Echo550; nanoliter range). After incubating for 10 min at room temp, ATP was added into the reaction mixture to initiate the reaction followed by a 30-min incubation at 30° C. After quenching the reaction with ADP-Glo reagent, the plates were incubated for 40 min. The Detection Mixture was added, and the plate was incubated for an additional 30 min. At the end of incubation, luminescence was measured. For data analysis, the luminescence was converted into μM ADP production based on ADP standard curves. The nonlinear regression to obtain the standard curve and IC50 values was performed using GraphPad Prism (GraphPad Software, Inc., San Diego, Calif.).

[1] = system: MCF-7 breast adenocarcinoma cells; assay: Cancer cell proliferation assay, single agent (cell viability); assay type: cell-based; settings: Homo sapiens, MCF7, Table 4; Rb positive; treatment 144 Hr with medium change at 72 Hr; Cell Titer-Glo or resazurin
Outline: (§1)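 Viability read by resazurin or CellTiter-Glo after 24 h treatment (BT-549) or 144 h with a 72 h medium change (MCF-7, DU4475). Compounds tested at 7–9 concentrations, e.g. 1.1 nM–10 μM, added the day after seeding; IC50 by nonlinear sigmoidal regression.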

[2] = system: DU4475 breast carcinoma cells; assay: as above; assay type: cell-based; settings: Homo sapiens, DU-4475; Table 4; Rb negative; treatment 144 Hr with medium change at 72 Hr; Cell Titer-Glo or resazurin
Outline: as §1

CDK4 = molecular target: T2, CDK4 (Homo sapiens, UniProt P11802); assay: In vitro kinase inhibition IC50, luminescence (ADP Glo), retinoblastoma substrate; assay type: biochemical; settings: read-out: CDK4/D1 IC50
T2 construct: purchased Invitrogen PR8064A
Outline: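 Inhibition of CDK4 was quantified by ADP Glo luminescence with retinoblastoma as substrate. Reactions held 5 nM kinase, 1 μM retinoblastoma and 25 μM ATP and ran 2H at room temperature. A Synergy Neo reader took signals 15 min and 45 min after detection reagent, and percent inhibition was fitted to a four-parameter logistic model in XLfit to obtain IC50.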

CDK6 = molecular target: T3, CDK6 (Homo sapiens, UniProt Q00534); assay: as above; assay type: biochemical; settings: read-out: CDK6/D1 IC50
T3 construct: purchased Invitrogen PR8422B
Outline: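 IC50 derived by four-parameter logistic fit of percent inhibition, read as ADP-Glo luminescence. Reactions: 5 nM CDK6, 1 μM retinoblastoma, 25 μM ATP, test compound 0.1–200 nM final, 2 h at room temperature.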

FMS kinase = molecular target: T4, FMS kinase (Homo sapiens, UniProt P07333); assay: LanthaScreen Eu Kinase Binding Assay (ATP, fluorescent-PolyGT substrate); assay type: biochemical
T4 construct: purchased Invitrogen (Life Technologies)
Description: IC50 values of compounds against FMS kinase were determined by LanthaScreen™ Eu Kinase Binding Assay at Invitrogen (Life Technologies Grand Island, N.Y.) where total reaction volume was 10 μL in low-volume 384-well plates (#4511, Corning). Serially diluted compounds (3-fold) were incubated with kinase (1.25 nM) for 10 min, following which a mixture of ATP (10 μM) (#A1852, Sigma, St-Louis, Mo.) and fluorescent-PolyGT substrate (200 nM) (#PV3610, Invitrogen, Life Technologies Grand Island, N.Y.) was added and incubated in dark at room temperature for 1H. After 1H, 10 μL stop solution containing Terbium labeled antibody (4 nM) (#PV3529, Invitrogen, Life Technologies Grand Island, N.Y.) and EDTA (#E5134, Sigma, St-Louis, Mo.) (20 mM) in TR-FRET dilution buffer (#PV3574, Invitrogen, Life Technologies Grand Island, N.Y.) was added. Readings were taken in a Synergy Neo Plate reader (BioTek, Winooski) at single excitation of 340 nm and Dual emission at 495 nm and 520 nm respectively.
The following equations were used for LanthaScreen Eu Kinase Binding Assay Data Analysis. Percent inhibition (100-% activity) was fitted to the “four-parameter logistic model” in XLfit for determination of IC50 values.

T2 sequence (P11802 whole entry): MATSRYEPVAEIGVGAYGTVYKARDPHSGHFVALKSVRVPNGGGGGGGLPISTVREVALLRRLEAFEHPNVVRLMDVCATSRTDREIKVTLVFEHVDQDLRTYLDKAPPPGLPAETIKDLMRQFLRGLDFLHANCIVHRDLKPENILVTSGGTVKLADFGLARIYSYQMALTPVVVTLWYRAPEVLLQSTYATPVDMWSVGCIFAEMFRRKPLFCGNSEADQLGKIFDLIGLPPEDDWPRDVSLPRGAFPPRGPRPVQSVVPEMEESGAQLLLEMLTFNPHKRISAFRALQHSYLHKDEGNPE
T2 sequence (P24385 whole entry partner): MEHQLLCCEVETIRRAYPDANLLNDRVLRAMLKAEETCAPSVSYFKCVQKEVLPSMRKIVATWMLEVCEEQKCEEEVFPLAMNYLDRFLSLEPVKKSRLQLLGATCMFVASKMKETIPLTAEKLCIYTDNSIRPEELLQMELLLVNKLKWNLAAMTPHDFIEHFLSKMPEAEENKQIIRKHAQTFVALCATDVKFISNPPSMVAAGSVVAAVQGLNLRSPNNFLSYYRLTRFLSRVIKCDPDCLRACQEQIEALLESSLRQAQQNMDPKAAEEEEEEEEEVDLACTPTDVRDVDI
T3 sequence (Q00534 whole entry): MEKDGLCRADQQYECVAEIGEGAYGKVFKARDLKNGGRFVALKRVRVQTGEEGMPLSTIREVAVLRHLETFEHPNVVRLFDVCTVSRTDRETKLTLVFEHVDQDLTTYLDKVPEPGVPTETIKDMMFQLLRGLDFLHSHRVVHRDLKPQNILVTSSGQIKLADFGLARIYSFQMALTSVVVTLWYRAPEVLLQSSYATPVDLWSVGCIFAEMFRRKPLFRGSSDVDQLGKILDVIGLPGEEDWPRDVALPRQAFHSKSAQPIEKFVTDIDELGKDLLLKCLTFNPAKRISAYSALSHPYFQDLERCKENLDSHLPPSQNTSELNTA
T3 sequence (P24385 whole entry partner): as the sequence (P24385 whole entry partner) above
T4 sequence (P07333 20-972): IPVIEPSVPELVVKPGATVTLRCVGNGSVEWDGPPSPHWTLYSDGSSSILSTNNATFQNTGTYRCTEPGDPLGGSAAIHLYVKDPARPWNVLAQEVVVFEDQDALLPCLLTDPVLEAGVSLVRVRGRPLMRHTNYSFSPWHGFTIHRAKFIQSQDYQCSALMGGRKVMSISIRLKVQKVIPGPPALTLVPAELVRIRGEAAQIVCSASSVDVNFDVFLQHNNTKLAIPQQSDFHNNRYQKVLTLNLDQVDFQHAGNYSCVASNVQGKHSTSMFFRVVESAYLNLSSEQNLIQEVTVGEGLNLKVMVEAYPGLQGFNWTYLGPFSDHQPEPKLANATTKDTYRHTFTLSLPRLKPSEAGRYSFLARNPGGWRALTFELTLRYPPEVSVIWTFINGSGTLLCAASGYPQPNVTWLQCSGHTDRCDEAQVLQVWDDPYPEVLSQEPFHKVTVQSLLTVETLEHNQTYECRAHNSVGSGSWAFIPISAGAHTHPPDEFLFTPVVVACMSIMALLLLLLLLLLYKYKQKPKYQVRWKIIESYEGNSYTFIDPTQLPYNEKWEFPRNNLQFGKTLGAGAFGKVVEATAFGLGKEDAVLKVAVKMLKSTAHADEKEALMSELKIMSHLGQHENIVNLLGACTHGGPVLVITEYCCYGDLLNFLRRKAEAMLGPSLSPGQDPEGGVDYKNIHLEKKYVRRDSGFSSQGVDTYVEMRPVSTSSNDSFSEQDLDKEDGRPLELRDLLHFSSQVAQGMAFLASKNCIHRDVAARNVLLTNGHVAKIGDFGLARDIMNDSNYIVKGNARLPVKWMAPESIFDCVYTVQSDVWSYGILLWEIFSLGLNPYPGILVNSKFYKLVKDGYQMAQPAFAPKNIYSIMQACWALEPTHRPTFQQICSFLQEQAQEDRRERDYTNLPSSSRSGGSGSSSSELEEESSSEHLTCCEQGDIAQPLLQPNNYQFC
T1 sequence (O00329 whole entry): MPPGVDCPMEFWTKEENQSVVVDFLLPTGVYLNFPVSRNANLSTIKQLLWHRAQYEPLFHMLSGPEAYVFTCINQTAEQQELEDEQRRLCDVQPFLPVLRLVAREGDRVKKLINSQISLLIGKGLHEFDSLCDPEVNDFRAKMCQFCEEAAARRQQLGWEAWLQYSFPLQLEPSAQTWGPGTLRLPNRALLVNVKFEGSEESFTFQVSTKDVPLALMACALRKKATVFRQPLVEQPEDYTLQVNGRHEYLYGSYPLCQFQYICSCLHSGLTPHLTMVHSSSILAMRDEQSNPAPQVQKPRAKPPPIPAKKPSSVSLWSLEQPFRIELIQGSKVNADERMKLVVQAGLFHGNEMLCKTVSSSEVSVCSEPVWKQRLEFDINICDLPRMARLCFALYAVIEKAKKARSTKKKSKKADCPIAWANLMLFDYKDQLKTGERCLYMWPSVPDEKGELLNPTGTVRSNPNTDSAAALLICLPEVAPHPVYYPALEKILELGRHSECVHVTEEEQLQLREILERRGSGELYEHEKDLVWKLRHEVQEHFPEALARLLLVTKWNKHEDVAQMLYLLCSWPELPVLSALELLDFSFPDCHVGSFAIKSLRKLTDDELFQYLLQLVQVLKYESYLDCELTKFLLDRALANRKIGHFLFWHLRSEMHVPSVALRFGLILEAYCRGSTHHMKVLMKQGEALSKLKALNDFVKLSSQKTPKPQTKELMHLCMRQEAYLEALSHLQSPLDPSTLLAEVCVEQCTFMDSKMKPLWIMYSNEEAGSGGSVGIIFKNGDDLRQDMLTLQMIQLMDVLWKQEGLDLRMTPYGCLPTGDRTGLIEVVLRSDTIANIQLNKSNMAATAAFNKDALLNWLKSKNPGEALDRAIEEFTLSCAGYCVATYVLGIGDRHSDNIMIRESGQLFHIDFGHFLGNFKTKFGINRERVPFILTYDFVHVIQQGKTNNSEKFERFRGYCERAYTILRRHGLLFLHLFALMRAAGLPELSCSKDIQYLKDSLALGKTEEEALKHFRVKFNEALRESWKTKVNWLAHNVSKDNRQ
T1 sequence (P27986 whole entry partner): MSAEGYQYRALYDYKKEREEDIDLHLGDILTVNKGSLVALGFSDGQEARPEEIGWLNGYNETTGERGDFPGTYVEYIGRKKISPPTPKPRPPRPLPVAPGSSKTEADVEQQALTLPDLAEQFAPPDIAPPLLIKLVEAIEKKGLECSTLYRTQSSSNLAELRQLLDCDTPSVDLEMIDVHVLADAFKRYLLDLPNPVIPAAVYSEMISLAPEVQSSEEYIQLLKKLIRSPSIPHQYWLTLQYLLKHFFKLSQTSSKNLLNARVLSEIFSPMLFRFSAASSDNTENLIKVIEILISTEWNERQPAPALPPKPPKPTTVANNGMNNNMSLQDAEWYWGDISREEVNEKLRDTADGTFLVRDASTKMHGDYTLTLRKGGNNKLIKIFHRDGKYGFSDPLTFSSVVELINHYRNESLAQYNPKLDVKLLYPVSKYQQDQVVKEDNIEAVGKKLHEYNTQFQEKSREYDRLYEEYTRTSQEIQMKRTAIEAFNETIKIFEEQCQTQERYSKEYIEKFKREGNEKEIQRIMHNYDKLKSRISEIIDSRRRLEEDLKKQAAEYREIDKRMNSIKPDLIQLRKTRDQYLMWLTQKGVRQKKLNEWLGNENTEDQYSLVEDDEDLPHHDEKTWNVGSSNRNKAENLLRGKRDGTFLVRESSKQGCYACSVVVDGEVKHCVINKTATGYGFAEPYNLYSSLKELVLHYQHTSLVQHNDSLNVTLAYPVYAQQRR

SMILES	pIC50 (PI3Kδ kinase)	pIC50 [1]	pIC50 [2]	pIC50 (CDK4)	pIC50 (CDK6)	pIC50 (FMS kinase)
CN1CCN(c2ccc(Nc3ncc4cc(C#N)c(=O)n(C5CCCC5)c4n3)cc2CO)CC1 [Compound No. 10, 8-cyclopentyl-2-((3-(hydroxymethyl)-4-(4-methylpiperazin-1-yl)phenyl)amino)-7-oxo-7,8-dihydropyrido[2,3-d]pyrimidine-6-carbonitrile]	6.51	7.05	5.79	9.00	9.00	> 9.00
CN(C)Cc1c[nH]c2cc(Nc3ncc4cc(C#N)c(=O)n(C5CCCC5)c4n3)ccc12 [Compound No. 21, 8-cyclopentyl-2-((3-((dimethylamino)methyl)-1H-indol-6-yl)amino)-7-oxo-7,8-dihydropyrido[2,3-d]pyrimidine-6-carbonitrile]	6.00	6.62		7.96	8.70	8.60
CN(C)CC1Cc2ccc(Nc3ncc4cc(C#N)c(=O)n(C5CCCC5)c4n3)cc2C(=O)N1 (stereo not drawn) [Compound No. 22, 8-cyclopentyl-2-((3-((dimethylamino)methyl)-1-oxo-1,2,3,4-tetrahydroisoquinolin-7-yl)amino)-7-oxo-7,8-dihydropyrido[2,3-d]pyrimidine-6-carbonitrile]	7.37	5.99		< 6.70	7.19	> 9.00
CN1CCN(c2ccc(Nc3ncc4cc(C#N)c(=O)n(Cc5ccccc5)c4n3)cc2)CC1 [Compound No. 32, 8-benzyl-2-((4-(4-methylpiperazin-1-yl)phenyl)amino)-7-oxo-7,8-dihydropyrido[2,3-d]pyrimidine-6-carbonitrile]	6.60	5.70		9.00	8.15	8.46
CN1CCc2ccc(Nc3ncc4cc(C#N)c(=O)n(C5CCCC5)c4n3)cc2C1 [Compound No. 34, 8-cyclopentyl-2-((2-methyl-1,2,3,4-tetrahydroisoquinolin-7-yl)amino)-7-oxo-7,8-dihydropyrido[2,3-d]pyrimidine-6-carbonitrile]	5.91	6.50		8.19	8.05	8.28
CC(c1ccccc1)n1c(=O)c(C#N)cc2cnc(Nc3ccc(N4CCN(C)CC4)cc3)nc21 (stereo not drawn) [Compound No. 35, 2-((4-(4-methylpiperazin-1-yl)phenyl)amino)-7-oxo-8-(1-phenylethyl)-7,8-dihydropyrido[2,3-d]pyrimidine-6-carbonitrile]	6.13	5.41		< 6.70	7.04	8.15
CN1CCN(c2ccc(Nc3ncc4cc(C#N)c(=O)n(C5CCCC5)c4n3)cc2F)CC1 [Compound No. 36, 8-cyclopentyl-2-((3-fluoro-4-(4-methylpiperazin-1-yl)phenyl)amino)-7-oxo-7,8-dihydropyrido[2,3-d]pyrimidine-6-carbonitrile]	5.99	6.50		9.00	9.00	8.19
N#Cc1cc2cnc(Nc3ccc(C4CCNCC4)cc3)nc2n(C2CCCC2)c1=O [Compound No. 37, 8-cyclopentyl-7-oxo-2-((4-(piperidin-4-yl)phenyl)amino)-7,8-dihydropyrido[2,3-d]pyrimidine-6-carbonitrile]	7.19	6.45	5.65	8.19	8.60	8.24
CN1CCc2cc(Nc3ncc4cc(C#N)c(=O)n(C5CCCC5)c4n3)ccc2C1 [Compound No. 38, 8-cyclopentyl-2-((2-methyl-1,2,3,4-tetrahydroisoquinolin-6-yl)amino)-7-oxo-7,8-dihydropyrido[2,3-d]pyrimidine-6-carbonitrile]	6.42	6.34		8.82	9.00	8.26
CCN(CC)CCOc1ccc(Nc2ncc3cc(C#N)c(=O)n(C4CCCC4)c3n2)cc1 [Compound No. 41, 8-cyclopentyl-2-((4-(2-(diethylamino)ethoxy)phenyl)amino)-7-oxo-7,8-dihydropyrido[2,3-d]pyrimidine-6-carbonitrile]	6.39	6.79		8.26	9.00	> 9.00
N#Cc1cc2cnc(Nc3ccc(N4CCNCC4)cc3)nc2n(C2CCc3ccccc32)c1=O (stereo not drawn) [Compound No. 42, 8-(2,3-dihydro-1H-inden-1-yl)-7-oxo-2-((4-(piperazin-1-yl)phenyl)amino)-7,8-dihydropyrido[2,3-d]pyrimidine-6-carbonitrile]	6.19	6.15		7.24	7.92	8.40
N#Cc1cc2cnc(Nc3ccc(C4CCNCC4)c(F)c3)nc2n(C2CCCC2)c1=O [Compound No. 43, 8-cyclopentyl-2-((3-fluoro-4-(piperidin-4-yl)phenyl)amino)-7-oxo-7,8-dihydropyrido[2,3-d]pyrimidine-6-carbonitrile]	6.74	6.74		8.30	8.52	8.82
CN(C)C1CCN(c2ccc(Nc3ncc4cc(C#N)c(=O)n(C5CCCC5)c4n3)cc2F)CC1 [Compound No. 44, 8-cyclopentyl-2-((4-(4-(dimethylamino)piperidin-1-yl)-3-fluorophenyl)amino)-7-oxo-7,8-dihydropyrido[2,3-d]pyrimidine-6-carbonitrile]	7.02	7.02		8.70	9.00	8.60
CC(C)N1CCc2cc(Nc3ncc4cc(C#N)c(=O)n(C5CCCC5)c4n3)ccc2C1 [Compound No. 45, 8-cyclopentyl-2-((2-isopropyl-1,2,3,4-tetrahydroisoquinolin-6-yl)amino)-7-oxo-7,8-dihydropyrido[2,3-d]pyrimidine-6-carbonitrile]	6.31	6.37		8.35	7.72	8.70
CN1CCC(c2ccc(Nc3ncc4cc(C#N)c(=O)n(C5CCCC5)c4n3)cc2F)CC1 [Compound No. 46, 8-cyclopentyl-2-((3-fluoro-4-(1-methylpiperidin-4-yl)phenyl)amino)-7-oxo-7,8-dihydropyrido[2,3-d]pyrimidine-6-carbonitrile]	6.18	6.56		7.82	8.30	8.60
CN(C)C1Cc2ccc(Nc3ncc4cc(C#N)c(=O)n(C5CCCC5)c4n3)cc2C1 (stereo not drawn) [Compound No. 47, 8-cyclopentyl-2-((2-(dimethylamino)-2,3-dihydro-1H-inden-5-yl)amino)-7-oxo-7,8-dihydropyrido[2,3-d]pyrimidine-6-carbonitrile]	6.46	6.46		8.02	8.40	8.60
N#Cc1cc2cnc(Nc3ccc(N4CCC(O)CC4)c(F)c3)nc2n(C2CCCC2)c1=O [Compound No. 49, 8-cyclopentyl-2-((3-fluoro-4-(4-hydroxypiperidin-1-yl)phenyl)amino)-7-oxo-7,8-dihydropyrido[2,3-d]pyrimidine-6-carbonitrile]	8.37	5.35		8.04	8.40	9.00
